For 15 compounds, T/C results are on record in PubChem BioAssay AID192 (DTP/NCI, 2004).

This test has as its system BDF1 mice, B16 melanoma ip, median survival T/C. Put plainly: NCI In Vivo Anticancer Drug Screen. Data for tumor model B16 Melanoma (intraperitoneal) in B6D2F1 (BDF1) mice. As to conditions: endpoint: median survival time, higher = longer survival. In short, it runs like this: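 Each result divides a survival or tumor-size measurement in the compound-treated group by the same measurement in the vehicle group.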

[1] abbreviates: dose: 100.0 mg/kg/injection, schedule: Q01DX009 (ip), vehicle: saline with Tween-80.
Where [2] appears, read: dose: 12.5 mg/kg/injection, schedule: Q01DX009 (ip), vehicle: saline with Tween-80.
The mark [3] stands for this setting: dose: 25.0 mg/kg/injection, schedule: Q01DX009 (ip), vehicle: Klucel (hydroxypropylcellulose) (HPC).
[4] abbreviates: dose: 50.0 mg/kg/injection, schedule: Q01DX009 (ip), vehicle: Klucel (hydroxypropylcellulose) (HPC).
[5] abbreviates: dose: 50.0 mg/kg/injection, schedule: Q04DX003 (ip), vehicle: saline with Tween-80.
The mark [6] stands for this setting: dose: 100.0 mg/kg/injection, schedule: Q04DX003 (ip), vehicle: Klucel (hydroxypropylcellulose) (HPC).
Where [7] appears, read: dose: 100.0 mg/kg/injection, schedule: Q04DX003 (ip), vehicle: saline with Tween-80.
[8] abbreviates: dose: 12.5 mg/kg/injection, schedule: Q01DX009 (ip), vehicle: saline.
The mark [9] stands for this setting: dose: 25.0 mg/kg/injection, schedule: Q01DX009 (ip), vehicle: saline with Tween-80.
Setting [10] is: dose: 25.0 mg/kg/injection, schedule: Q01DX009 (ip), vehicle: saline.
Setting [11] is: dose: 50.0 mg/kg/injection, schedule: Q01DX009 (ip), vehicle: saline with Tween-80.
Setting [12] is: dose: 50.0 mg/kg/injection, schedule: Q01DX009 (ip), vehicle: saline.
Where [13] appears, read: dose: 100.0 mg/kg/injection, schedule: Q01DX009 (ip), vehicle: Klucel (hydroxypropylcellulose) (HPC).
The mark [14] stands for this setting: dose: 200.0 mg/kg/injection, schedule: Q01DX009 (ip), vehicle: Klucel (hydroxypropylcellulose) (HPC).

Each structure is given as a SMILES string. Inconclusive results and toxic doses are left out.

For the compound `CC(SC(C)c1ccccc1)c1ccccc1` (stereo not given), the T/C under setting [1] is 101 % of control; the T/C (dose: 200.0 mg/kg/injection, schedule: Q01DX009 (ip), vehicle: saline with Tween-80) was 99 % of control; the T/C (dose: 400.0 mg/kg/injection, schedule: Q01DX009 (ip), vehicle: saline with Tween-80) is 88 % of control.
With `O=C1C(=O)c2ccccc2-c2ccccc21`, the T/C reads like this: (dose: 1.56 mg/kg/injection, schedule: Q01DX009 (ip), vehicle: saline with Tween-80) 100 % of control; (dose: 3.13 mg/kg/injection, schedule: Q01DX009 (ip), vehicle: saline with Tween-80) 89 % of control; (dose: 6.25 mg/kg/injection, schedule: Q01DX009 (ip), vehicle: Klucel (hydroxypropylcellulose) (HPC)) 102 % of control; (dose: 6.25 mg/kg/injection, schedule: Q01DX009 (ip), vehicle: saline with Tween-80) 97 % of control; (dose: 12.5 mg/kg/injection, schedule: Q01DX009 (ip), vehicle: Klucel (hydroxypropylcellulose) (HPC)) 101 % of control; under setting [2], 100 % of control. The T/C is, setting by setting: (dose: 12.5 mg/kg/injection, schedule: Q04DX003 (ip), vehicle: Klucel (hydroxypropylcellulose) (HPC)) 98 % of control; under setting [3], 104 % of control; (dose: 25.0 mg/kg/injection, schedule: Q04DX003 (ip), vehicle: Klucel (hydroxypropylcellulose) (HPC)) 89 % of control; under setting [4], 109 % of control; (dose: 50.0 mg/kg/injection, schedule: Q04DX003 (ip), vehicle: Klucel (hydroxypropylcellulose) (HPC)) 98 % of control; under setting [5], 166 % of control. Besides, under setting [6], the T/C is 89 % of control.
In the case of `CN(C)CC(C(=O)c1ccc(Br)cc1)C(Br)c1ccccc1` (stereo not given), the T/C was 101 % of control (dose: 5.0 mg/kg/injection, schedule: Q01DX009 (ip), vehicle: saline with Tween-80); 108 % of control (dose: 10.0 mg/kg/injection, schedule: Q01DX009 (ip), vehicle: saline with Tween-80); 101 % of control (dose: 20.0 mg/kg/injection, schedule: Q01DX009 (ip), vehicle: saline with Tween-80); 111 % of control (dose: 40.0 mg/kg/injection, schedule: Q01DX009 (ip), vehicle: saline with Tween-80).
As to `Cc1cccc(C(=O)CC(O)(C(F)(F)F)C(F)(F)F)n1`, the T/C under setting [7] is 110 % of control; the T/C (dose: 200.0 mg/kg/injection, schedule: Q04DX003 (ip), vehicle: saline with Tween-80) was 100 % of control; the T/C (dose: 400.0 mg/kg/injection, schedule: Q04DX003 (ip), vehicle: saline with Tween-80) is 100 % of control.
`C=CC(=O)NCNC(=O)C=C`: the T/C was 104 % of control under setting [2]; 110 % of control under setting [8]; 99 % of control under setting [9]; 102 % of control under setting [10]; 103 % of control under setting [11]; 109 % of control under setting [12]. Moreover, the T/C by setting is: under setting [1], 107 % of control; (dose: 100.0 mg/kg/injection, schedule: Q01DX009 (ip), vehicle: saline) 102 % of control.
Take `O=C(Nc1ccccc1C(F)(F)F)c1ccc(C(=O)Nc2ccccc2C(F)(F)F)cc1`: the T/C by setting is: (dose: 8.0 mg/kg/injection, schedule: Q01DX009 (ip), vehicle: saline with Tween-80) 88 % of control; (dose: 12.0 mg/kg/injection, schedule: Q01DX009 (ip), vehicle: saline with Tween-80) 90 % of control; under setting [2], 212 % of control; (dose: 18.0 mg/kg/injection, schedule: Q01DX009 (ip), vehicle: saline with Tween-80) 88 % of control; under setting [9], 171 % of control; under setting [11], 156 % of control.
Turning to `COc1cc(C)c2c(c1C=O)Oc1c(c(C)c(O)c3c1C(O)OC3=O)OC2=O` (stereo not given), the T/C (dose: 3.12 mg/kg/injection, schedule: Q01DX009 (ip), vehicle: saline) is 101 % of control; the T/C (dose: 6.25 mg/kg/injection, schedule: Q01DX009 (ip), vehicle: saline) is 94 % of control; the T/C under setting [8] is 100 % of control; the T/C under setting [10] is 101 % of control; the T/C under setting [12] was 87 % of control.
Regarding `CCc1ccccc1NC(=O)Nc1ccccc1C`, the T/C under setting [6] is 87 % of control; the T/C (dose: 200.0 mg/kg/injection, schedule: Q04DX003 (ip), vehicle: Klucel (hydroxypropylcellulose) (HPC)) is 87 % of control; the T/C (dose: 400.0 mg/kg/injection, schedule: Q04DX003 (ip), vehicle: Klucel (hydroxypropylcellulose) (HPC)) was 87 % of control.
Take `C(=N\Nc1nn[nH]n1)/c1ccncc1`: the T/C reads like this: under setting [13], 103 % of control; under setting [14], 104 % of control.
Regarding `CC(C)CC(NC(=O)c1ccccc1)C(=O)O` (stereo not given), the T/C under setting [1] is 97 % of control.
Consider `C/C=C(/C#N)c1ccccc1`, for which the T/C is, setting by setting: under setting [5], 100 % of control; under setting [7], 97 % of control.
Regarding `N#CCCc1ccc(O)cc1`, the T/C is 100 % of control (dose: 50.0 mg/kg/injection, schedule: Q01DX009 (ip), vehicle: gum acacia); 100 % of control (dose: 50.0 mg/kg/injection, schedule: Q04DX003 (ip), vehicle: gum acacia); 89 % of control (dose: 100.0 mg/kg/injection, schedule: Q01DX009 (ip), vehicle: gum acacia); 106 % of control (dose: 100.0 mg/kg/injection, schedule: Q04DX003 (ip), vehicle: gum acacia); 91 % of control (dose: 200.0 mg/kg/injection, schedule: Q01DX009 (ip), vehicle: gum acacia); 95 % of control (dose: 200.0 mg/kg/injection, schedule: Q04DX003 (ip), vehicle: gum acacia).
In the case of `CCC(=O)NCC1(c2ccccc2)CCN(CC2COc3ccccc3O2)CC1` (stereo not given), the T/C was 116 % of control (dose: 25.0 mg/kg/injection, schedule: Q04DX003 (ip), vehicle: saline); 107 % of control (dose: 50.0 mg/kg/injection, schedule: Q04DX003 (ip), vehicle: saline); 105 % of control (dose: 100.0 mg/kg/injection, schedule: Q04DX003 (ip), vehicle: saline).
On to `O=c1ccc2ccccc2o1`, for which the T/C runs as follows: under setting [3], 100 % of control; under setting [4], 105 % of control; under setting [13], 111 % of control; under setting [14], 101 % of control.
For `Cc1ccc(NS(=O)(=O)c2ccccc2)cc1Cl`, the T/C is, setting by setting: under setting [14], 90 % of control; (dose: 400.0 mg/kg/injection, schedule: Q01DX009 (ip), vehicle: Klucel (hydroxypropylcellulose) (HPC)) 88 % of control.
